In ChEMBL document CHEMBL4308841, “Synthesis, in vitro antiproliferative activity, and kinase inhibitory effects of pyrazole-containing diarylureas and diarylamides” (Eur J Med Chem, 2018):

Columns and labels:
CCRF-CEM [1] = test: Growth inhibition of human CCRF-CEM cells assessed as cell growth at 0.01 uM incubated for 48 hrs by sulforhodamine B assay relative to control; type: functional; conditions: read-out: Activity
SNB-19 [2] = test: Growth inhibition of human SNB19 cells assessed as cell growth at 100 uM incubated for 48 hrs by sulforhodamine B assay relative to control; type: functional; conditions: SNB-19, 48 h, read-out: Activity
OVCAR-3 = test: Growth inhibition of human OVCAR3 cells assessed as cell growth at 0.01 uM incubated for 48 hrs by sulforhodamine B assay relative to control; type: functional; conditions: OVCAR-3, 48 h, read-out: Activity
Hs-578T = test: Growth inhibition of human Hs578T cells assessed as cell growth at 0.1 uM incubated for 48 hrs by sulforhodamine B assay relative to control; type: functional; conditions: read-out: Activity
SF-295 = test: Growth inhibition of human SF295 cells assessed as cell growth at 100 uM incubated for 48 hrs by sulforhodamine B assay relative to control; type: functional; conditions: SF-295, 48 h, read-out: Activity
BT-549 [3] = test: Growth inhibition of human BT549 cells assessed as cell growth at 0.01 uM incubated for 48 hrs by sulforhodamine B assay relative to control; type: functional; conditions: BT-549, 48 h, read-out: Activity
SW-620 = test: Growth inhibition of human SW620 cells assessed as cell growth at 0.1 uM incubated for 48 hrs by sulforhodamine B assay relative to control; type: functional; conditions: SW-620, 48 h, read-out: Activity
UO-31 = test: Growth inhibition of human UO31 cells assessed as cell growth at 100 uM incubated for 48 hrs by sulforhodamine B assay relative to control; type: functional; conditions: UO-31, 48 h, read-out: Activity
HCT-15 = test: Growth inhibition of human HCT15 cells assessed as cell growth at 0.1 uM incubated for 48 hrs by sulforhodamine B assay relative to control; type: functional; conditions: HCT-15, 48 h, read-out: Activity
ACHN = test: Growth inhibition of human ACHN cells incubated for 48 hrs by sulforhodamine B assay; type: functional, cell-based
786-0 = test: Growth inhibition of human 786-0 cells incubated for 48 hrs by sulforhodamine B assay; type: functional, cell-based; conditions: 786-0, 48 h
UACC-62 = test: Growth inhibition of human UACC62 cells assessed as cell growth at 0.1 uM incubated for 48 hrs by sulforhodamine B assay relative to control; type: functional; conditions: UACC-62, 48 h, read-out: Activity
BT-549 [4] = test: Growth inhibition of human BT549 cells incubated for 48 hrs by sulforhodamine B assay; type: functional, cell-based; conditions: BT-549, 48 h
CCRF-CEM [5] = test: Growth inhibition of human CCRF-CEM cells assessed as cell growth at 100 uM incubated for 48 hrs by sulforhodamine B assay relative to control; type: functional; conditions: read-out: Activity
M14 = test: Growth inhibition of human M14 cells assessed as cell growth at 0.1 uM incubated for 48 hrs by sulforhodamine B assay relative to control; type: functional; conditions: M14, 48 h, read-out: Activity
SK-MEL-5 = test: Growth inhibition of human SK-MEL-5 cells assessed as cell growth at 100 uM incubated for 48 hrs by sulforhodamine B assay relative to control; type: functional; conditions: SK-MEL-5, 48 h, read-out: Activity
MOLT-4 = test: Growth inhibition of human MOLT4 cells assessed as cell growth at 1 uM incubated for 48 hrs by sulforhodamine B assay relative to control; type: functional; conditions: MOLT-4, 48 h, read-out: Activity
NCI-H322M [6] = test: Growth inhibition of human NCI-H322M cells incubated for 48 hrs by sulforhodamine B assay; type: functional, cell-based
SK-MEL-28 = test: Growth inhibition of human SK-MEL-28 cells assessed as cell growth at 1 uM incubated for 48 hrs by sulforhodamine B assay relative to control; type: functional; conditions: SK-MEL-28, 48 h, read-out: Activity
NCI-H322M [7] = test: Growth inhibition of human NCI-H322M cells assessed as cell growth at 0.01 uM incubated for 48 hrs by sulforhodamine B assay relative to control; type: functional; conditions: read-out: Activity
NCI-H522 = test: Growth inhibition of human NCI-H522 cells assessed as cell growth at 1 uM incubated for 48 hrs by sulforhodamine B assay relative to control; type: functional; conditions: NCI-H522, 48 h, read-out: Activity
KM12 = test: Growth inhibition of human KM12 cells incubated for 48 hrs by sulforhodamine B assay; type: functional, cell-based; conditions: KM12, 48 h
T47D = test: Growth inhibition of human T47D cells assessed as cell growth at 0.01 uM incubated for 48 hrs by sulforhodamine B assay relative to control; type: functional; conditions: read-out: Activity
CAKI-1 = test: Growth inhibition of human Caki1 cells assessed as cell growth at 0.1 uM incubated for 48 hrs by sulforhodamine B assay relative to control; type: functional; conditions: CAKI-1, 48 h, read-out: Activity
SK-MEL-2 = test: Growth inhibition of human SK-MEL-2 cells assessed as cell growth at 0.1 uM incubated for 48 hrs by sulforhodamine B assay relative to control; type: functional; conditions: SK-MEL-2, 48 h, read-out: Activity
U-251 = test: Growth inhibition of human U251 cells assessed as cell growth at 0.01 uM incubated for 48 hrs by sulforhodamine B assay relative to control; type: functional; conditions: U-251, 48 h, read-out: Activity
MDA-MB-468 = test: Growth inhibition of human MDA-MB-468 cells assessed as cell growth at 0.01 uM incubated for 48 hrs by sulforhodamine B assay relative to control; type: functional; conditions: MDA-MB-468, 48 h, read-out: Activity
SNB-19 [8] = test: Growth inhibition of human SNB19 cells assessed as cell growth at 0.1 uM incubated for 48 hrs by sulforhodamine B assay relative to control; type: functional; conditions: SNB-19, 48 h, read-out: Activity
IGROV-1 = test: Growth inhibition of human IGROV1 cells incubated for 48 hrs by sulforhodamine B assay; type: functional, cell-based; conditions: IGROV-1, 48 h
[9] = read-out: LC50 (the source's name)
[10] = read-out: pLC50 (the source's name) (converted)

Question: `O=C(Nc1cccc(-n2cc(-c3ccncc3)c(-c3cc(O)cc(Cl)c3)n2)c1)c1cc(C(F)(F)F)cc(C(F)(F)F)c1` was tested. Which growth at 0.01 µM (CCRF-CEM [1]) did it give?
Answer: Its growth at 0.01 µM is 96%.

Question: What about the growth at 100 µM (SNB-19 [2]) of the same compound?
Answer: The growth at 100 µM was 34%.

Question: What about the growth at 0.01 µM (OVCAR-3) of the same compound?
Answer: Its growth at 0.01 µM is 102%.

Question: And the growth at 0.1 µM (Hs-578T)?
Answer: The growth at 0.1 µM was 92%.

Question: What about the growth at 100 µM (SF-295) of the same compound?
Answer: Its growth at 100 µM is -38%.

Question: And the growth at 0.01 µM (BT-549 [3])?
Answer: The growth at 0.01 µM was 95%.

Question: What about the growth at 0.1 µM (SW-620) of the same compound?
Answer: Its growth at 0.1 µM is 98%.

Question: What about the growth at 100 µM (UO-31) of the same compound?
Answer: The growth at 100 µM was 13%.

Question: And the growth at 0.1 µM (HCT-15)?
Answer: The growth at 0.1 µM was 90%.

Question: And the GI50 (ACHN; read-out: GI50)?
Answer: The GI50 was 4.96 µM.

Question: What about the CC50 (ACHN; [9]) of the same compound?
Answer: Its CC50 is > 100 µM.

Question: And the TGI (ACHN; read-out: TGI)?
Answer: The TGI was > 100 µM.

Question: And the GI50 (ACHN; read-out: pGI50 (converted))?
Answer: The GI50 was 5.01 µM.

Question: What about the CC50 (ACHN; [10]) of the same compound?
Answer: The CC50 was > 100 µM.

Question: What about the TGI (ACHN; read-out: pTGI (converted)) of the same compound?
Answer: Its TGI is > 100 µM.

Question: And the GI50 (786-0; read-out: GI50)?
Answer: Its GI50 is 3.12 µM.

Question: And the CC50 (786-0; [9])?
Answer: Its CC50 is > 100 µM.

Question: And the TGI (786-0; read-out: TGI)?
Answer: The TGI was 21.1 µM.

Question: What about the GI50 (786-0; read-out: pGI50 (converted)) of the same compound?
Answer: Its GI50 is 3.09 µM.

Question: And the CC50 (786-0; [10])?
Answer: Its CC50 is > 100 µM.

Question: And the TGI (786-0; read-out: pTGI (converted))?
Answer: Its TGI is 20.9 µM.

Question: What about the growth at 0.1 µM (UACC-62) of the same compound?
Answer: The growth at 0.1 µM was 97%.

Question: And the GI50 (BT-549 [4]; read-out: GI50)?
Answer: Its GI50 is 4.58 µM.

Question: What about the CC50 (BT-549 [4]; [9]) of the same compound?
Answer: The CC50 was > 100 µM.

Question: What about the TGI (BT-549 [4]; read-out: TGI) of the same compound?
Answer: The TGI was 48.8 µM.

Question: What about the GI50 (BT-549 [4]; read-out: pGI50 (converted)) of the same compound?
Answer: The GI50 was 4.68 µM.

Question: What about the CC50 (BT-549 [4]; [10]) of the same compound?
Answer: The CC50 was > 100 µM.

Question: What about the TGI (BT-549 [4]; read-out: pTGI (converted)) of the same compound?
Answer: Its TGI is 46.8 µM.

Question: What about the growth at 100 µM (CCRF-CEM [5]) of the same compound?
Answer: The growth at 100 µM was 1%.

Question: And the growth at 0.1 µM (M14)?
Answer: The growth at 0.1 µM was 93%.

Question: What about the growth at 100 µM (SK-MEL-5) of the same compound?
Answer: Its growth at 100 µM is -45%.

Question: And the growth at 1 µM (MOLT-4)?
Answer: Its growth at 1 µM is 78%.

Question: And the GI50 (NCI-H322M [6]; read-out: GI50)?
Answer: The GI50 was 7.92 µM.

Question: What about the CC50 (NCI-H322M [6]; [9]) of the same compound?
Answer: The CC50 was > 100 µM.

Question: And the TGI (NCI-H322M [6]; read-out: TGI)?
Answer: The TGI was > 100 µM.

Question: And the GI50 (NCI-H322M [6]; read-out: pGI50 (converted))?
Answer: The GI50 was 7.94 µM.

Question: And the CC50 (NCI-H322M [6]; [10])?
Answer: Its CC50 is > 100 µM.

Question: And the TGI (NCI-H322M [6]; read-out: pTGI (converted))?
Answer: Its TGI is > 100 µM.

Question: What about the growth at 1 µM (SK-MEL-28) of the same compound?
Answer: The growth at 1 µM was 55%.

Question: What about the growth at 0.01 µM (NCI-H322M [7]) of the same compound?
Answer: Its growth at 0.01 µM is 103%.

Question: What about the growth at 1 µM (NCI-H522) of the same compound?
Answer: Its growth at 1 µM is 54%.

Question: And the GI50 (KM12; read-out: GI50)?
Answer: Its GI50 is 1.96 µM.

Question: What about the CC50 (KM12; [9]) of the same compound?
Answer: Its CC50 is > 100 µM.

Question: And the GI50 (KM12; read-out: pGI50 (converted))?
Answer: Its GI50 is 1.95 µM.

Question: What about the CC50 (KM12; [10]) of the same compound?
Answer: Its CC50 is > 100 µM.

Question: What about the growth at 0.01 µM (T47D) of the same compound?
Answer: The growth at 0.01 µM was 102%.

Question: And the growth at 0.1 µM (CAKI-1)?
Answer: Its growth at 0.1 µM is 98%.

Question: And the growth at 0.1 µM (SK-MEL-2)?
Answer: Its growth at 0.1 µM is 93%.

Question: What about the growth at 0.01 µM (U-251) of the same compound?
Answer: The growth at 0.01 µM was 96%.

Question: What about the growth at 0.01 µM (MDA-MB-468) of the same compound?
Answer: Its growth at 0.01 µM is 91%.

Question: What about the growth at 0.1 µM (SNB-19 [8]) of the same compound?
Answer: Its growth at 0.1 µM is 97%.

Question: What about the GI50 (IGROV-1; read-out: GI50) of the same compound?
Answer: The GI50 was 7.96 µM.

Question: And the CC50 (IGROV-1; [9])?
Answer: The CC50 was > 100 µM.

Question: What about the TGI (IGROV-1; read-out: TGI) of the same compound?
Answer: The TGI was > 100 µM.

Question: What about the GI50 (IGROV-1; read-out: pGI50 (converted)) of the same compound?
Answer: The GI50 was 7.94 µM.

Question: And the CC50 (IGROV-1; [10])?
Answer: Its CC50 is > 100 µM.

Question: What about the TGI (IGROV-1; read-out: pTGI (converted)) of the same compound?
Answer: The TGI was > 100 µM.
